Values of other authors in patent US10221122B2, “Enantiospecific process for the preparation of (R) and (S) enantiomers of sex pheromonoes of the long tailed mealy bug” (Council of Scientific & Industrial Research, priority 2015, dated 2019).
Like-named read-outs stand apart in the source and are kept apart here.

Key:
American cockroach = settings: J. Chem. Ecol. 1983, 9(3), 433-48
[1] = system: males of the American cockroach; settings: Agric. Biol. Chem. 1979, 43(9), 1967-1974
male mealybugs [2] = settings: attraction lasting three months; reported by Miller group
male mealybugs [3] = settings: field trials; J. Org. Chem. 2013, 78, 6281-6284

Row | Compound | sex pheromonal activity (American cockroach; at 0.05 mg) | attractiveness to male mealybugs (male mealybugs [3]) | other results
1 | CC(=O)OC1CC2CCC1(C)C2(C)C (single isomer, unassigned; (+)) [(+)-bornyl acetate] | showed the activity | – | excitation of males showing the typical sexual response [1]: excite males of the American cockroach
2 | CC(=O)OCCC1(C)C=CCC1(C)C (racemic) [racemic form of the pheromone] | – | – | amount sufficient to attract male mealybugs (male mealybugs [2]): 25 µg
3 | CC(=O)OCC[C@@]1(C)C=CCC1(C)C [(S)-(+)-enantiomer, 2-[(1S)-1,5,5-trimethylcyclopent-2-en-1-yl]ethyl acetate] | – | highly attractive | –
4 | CC(=O)OCC[C@]1(C)C=CCC1(C)C [(R)-(−)-enantiomer, 2-[(1R)-1,5,5-trimethylcyclopent-2-en-1-yl]ethyl acetate] | – | neither attractive nor inhibitory | –
5 | CCC(=O)OC1CC2CCC1(C)C2(C)C (single isomer, unassigned; (-)) [(−)-bornyl propionate] | – | – | sex pheromonal activity (American cockroach; at 0.5 mg dose): weak activity
6 | CCC(=O)OC1CC2CCC1(C)C2(C)C (stereo not shown) [Ic] | showed the activity | – | –
